Assay results reported in patent publication US7563864B2, “Prolyl endopeptidase mediated destruction of T cell epitopes in whole gluten” (Celiac Sprue Research Foundation, priority 2004, dated 2009).

Columns and labels:
Type in all cases: cell-based, human
Parameters in all cases: key: −: no response; Stimulatory index (SI; T + APC + TG2-treated peptide divided by T + APC) of 3-10; ++: SI above 10
Settings in all cases: DQ2+ APC, 5 μM TG2-treated peptide, 3H thymidine incorporation
[1] = test system: intestinal T cell line 437.1.1; assay: T cell proliferation assay, polyclonal T cell line 437.1.1
Text: (§1) T cell assays—The generation of polyclonal gluten-specific T cell lines derived from ex vivo gluten challenged small intestinal biopsy specimens of adult Celiac Sprue patients have been described elsewhere. For this study 14 different intestinal T cell lines derived from 13 DQ2+celiac patients were selected based on two basic criteria; effective recognition of TG2-treated digests of gluten and significant responses to at least two different gluten epitopes (Table 2). The generation of intestinal T cell clones and the epitope specificity of these clones, except TCC 387.3, has been described elsewhere (10). The TCC 387.3 recognizes a TG2-dependent epitope, defined as γ-VI that is contained within residues 62-72 (PQQPFPQQPQQ) of recombinant γ-5 gliadin. The freeze-dried, proteolyzed gluten samples were dissolved in PBS with 2 mM CaCl2 and treated with 150 μg/ml human recombinant TG2 (14) or, in some experiments 200 μg/ml guinea pig transglutaminase (Sigma T-5398), for 2 hours at 37° C. The TG2-treated samples were incubated overnight in triplicates on U-bottomed 96 well plates with 75 000 cells per well of DQ2 homozygous, irradiated (75 Gy) EBV-transformed B-lymphoblastoid cell lines in a volume of 100 μl 15% pooled, inactivated human serum and RPMI1640. After the incubation 50 μl of freshly thawed T cells (1×10^6 cells/ml) were added to each well. The proliferation in the wells was evaluated by ^3H thymidine incorporation from 48-72 hours after the addition of the T cells.

[2] = test system: intestinal T cell line 491.1.3; assay: T cell proliferation assay, polyclonal T cell line 491.1.3
Text: as §1

[3] = test system: intestinal T cell line 488.3.1; assay: T cell proliferation assay, polyclonal T cell line 488.3.1
Text: as §1

[4] = test system: intestinal T cell line 496.1.2; assay: T cell proliferation assay, polyclonal T cell line 496.1.2
Text: as §1

[5] = test system: intestinal T cell line 446.1.3; assay: T cell proliferation assay, polyclonal T cell line 446.1.3
Text: as §1

[6] = test system: intestinal T cell line 451.1.1; assay: T cell proliferation assay, polyclonal T cell line 451.1.1
Text: as §1

[7] = test system: intestinal T cell line 502.1.2; assay: T cell proliferation assay, polyclonal T cell line 502.1.2
Text: as §1

[8] = test system: intestinal T cell line 461.1.4; assay: T cell proliferation assay, polyclonal T cell line 461.1.4
Text: as §1

[9] = test system: intestinal T cell line 432.2.1; assay: T cell proliferation assay, polyclonal T cell line 432.2.1
Text: as §1

[10] = test system: intestinal T cell line 421.1.4; assay: T cell proliferation assay, polyclonal T cell line 421.1.4
Text: as §1

[11] = test system: intestinal T cell line 437.1.3; assay: T cell proliferation assay, polyclonal T cell line 437.1.3
Text: as §1

[12] = test system: intestinal T cell line 422.4.2; assay: T cell proliferation assay, polyclonal T cell line 422.4.2
Text: as §1

[13] = test system: intestinal T cell line 494.1.1; assay: T cell proliferation assay, polyclonal T cell line 494.1.1
Text: as §1

[14] = test system: intestinal T cell line 482.1.4; assay: T cell proliferation assay, polyclonal T cell line 482.1.4
Text: as §1

## GIIQPQQPAQL [γ-II]
[1]
  Response to TG2-treated gluten peptides (stimulatory index): −
[2]
  Response to TG2-treated gluten peptides (stimulatory index): −
[3]
  Response to TG2-treated gluten peptides (stimulatory index): −
[4]
  Response to TG2-treated gluten peptides (stimulatory index): ++ (SI above 10)
[5]
  Response to TG2-treated gluten peptides (stimulatory index): ++ (SI above 10)
[6]
  Response to TG2-treated gluten peptides (stimulatory index): ++ (SI above 10)
[7]
  Response to TG2-treated gluten peptides (stimulatory index): −
[8]
  Response to TG2-treated gluten peptides (stimulatory index): −
[9]
  Response to TG2-treated gluten peptides (stimulatory index): −
[10]
  Response to TG2-treated gluten peptides (stimulatory index): + (Stimulatory index (SI; T + APC + TG2-treated peptide divided by T + APC) of 3-10)
[11]
  Response to TG2-treated gluten peptides (stimulatory index): −
[12]
  Response to TG2-treated gluten peptides (stimulatory index): −
[13]
  Response to TG2-treated gluten peptides (stimulatory index): −
[14]
  Response to TG2-treated gluten peptides (stimulatory index): −

## LQLQPFPQPQLPYPQPQLPYPQPQLPYPQPQPF [αG-33]
[1]
  Response to TG2-treated gluten peptides (stimulatory index): ++ (SI above 10)
[2]
  Response to TG2-treated gluten peptides (stimulatory index): ++ (SI above 10)
[3]
  Response to TG2-treated gluten peptides (stimulatory index): ++ (SI above 10)
[4]
  Response to TG2-treated gluten peptides (stimulatory index): ++ (SI above 10)
[5]
  Response to TG2-treated gluten peptides (stimulatory index): ++ (SI above 10)
[6]
  Response to TG2-treated gluten peptides (stimulatory index): ++ (SI above 10)
[7]
  Response to TG2-treated gluten peptides (stimulatory index): ++ (SI above 10)
[8]
  Response to TG2-treated gluten peptides (stimulatory index): + (Stimulatory index (SI; T + APC + TG2-treated peptide divided by T + APC) of 3-10)
[9]
  Response to TG2-treated gluten peptides (stimulatory index): ++ (SI above 10)
[10]
  Response to TG2-treated gluten peptides (stimulatory index): ++ (SI above 10)
[11]
  Response to TG2-treated gluten peptides (stimulatory index): ++ (SI above 10)
[12]
  Response to TG2-treated gluten peptides (stimulatory index): ++ (SI above 10)
[13]
  Response to TG2-treated gluten peptides (stimulatory index): ++ (SI above 10)
[14]
  Response to TG2-treated gluten peptides (stimulatory index): ++ (SI above 10)

## LQPQQPFPQQPQQPYPQQPQ [γ-III and γ-VI]
[1]
  Response to TG2-treated gluten peptides (stimulatory index): −
[2]
  Response to TG2-treated gluten peptides (stimulatory index): −
[3]
  Response to TG2-treated gluten peptides (stimulatory index): + (Stimulatory index (SI; T + APC + TG2-treated peptide divided by T + APC) of 3-10)
[4]
  Response to TG2-treated gluten peptides (stimulatory index): + (Stimulatory index (SI; T + APC + TG2-treated peptide divided by T + APC) of 3-10)
[5]
  Response to TG2-treated gluten peptides (stimulatory index): −
[6]
  Response to TG2-treated gluten peptides (stimulatory index): −
[7]
  Response to TG2-treated gluten peptides (stimulatory index): + (Stimulatory index (SI; T + APC + TG2-treated peptide divided by T + APC) of 3-10)
[8]
  Response to TG2-treated gluten peptides (stimulatory index): + (Stimulatory index (SI; T + APC + TG2-treated peptide divided by T + APC) of 3-10)
[9]
  Response to TG2-treated gluten peptides (stimulatory index): −
[10]
  Response to TG2-treated gluten peptides (stimulatory index): + (Stimulatory index (SI; T + APC + TG2-treated peptide divided by T + APC) of 3-10)
[11]
  Response to TG2-treated gluten peptides (stimulatory index): −
[12]
  Response to TG2-treated gluten peptides (stimulatory index): −
[13]
  Response to TG2-treated gluten peptides (stimulatory index): ++ (SI above 10)
[14]
  Response to TG2-treated gluten peptides (stimulatory index): −

## PQPQLPYPQPQLPY [α-II]
[1]
  Response to TG2-treated gluten peptides (stimulatory index): + (Stimulatory index (SI; T + APC + TG2-treated peptide divided by T + APC) of 3-10)
[2]
  Response to TG2-treated gluten peptides (stimulatory index): ++ (SI above 10)
[3]
  Response to TG2-treated gluten peptides (stimulatory index): ++ (SI above 10)
[4]
  Response to TG2-treated gluten peptides (stimulatory index): + (Stimulatory index (SI; T + APC + TG2-treated peptide divided by T + APC) of 3-10)
[5]
  Response to TG2-treated gluten peptides (stimulatory index): ++ (SI above 10)
[6]
  Response to TG2-treated gluten peptides (stimulatory index): + (Stimulatory index (SI; T + APC + TG2-treated peptide divided by T + APC) of 3-10)
[7]
  Response to TG2-treated gluten peptides (stimulatory index): + (Stimulatory index (SI; T + APC + TG2-treated peptide divided by T + APC) of 3-10)
[8]
  Response to TG2-treated gluten peptides (stimulatory index): + (Stimulatory index (SI; T + APC + TG2-treated peptide divided by T + APC) of 3-10)
[9]
  Response to TG2-treated gluten peptides (stimulatory index): ++ (SI above 10)
[10]
  Response to TG2-treated gluten peptides (stimulatory index): + (Stimulatory index (SI; T + APC + TG2-treated peptide divided by T + APC) of 3-10)
[11]
  Response to TG2-treated gluten peptides (stimulatory index): + (Stimulatory index (SI; T + APC + TG2-treated peptide divided by T + APC) of 3-10)
[12]
  Response to TG2-treated gluten peptides (stimulatory index): ++ (SI above 10)
[13]
  Response to TG2-treated gluten peptides (stimulatory index): ++ (SI above 10)
[14]
  Response to TG2-treated gluten peptides (stimulatory index): + (Stimulatory index (SI; T + APC + TG2-treated peptide divided by T + APC) of 3-10)

## QLQPFPQPQLPY [α-I]
[1]
  Response to TG2-treated gluten peptides (stimulatory index): −
[2]
  Response to TG2-treated gluten peptides (stimulatory index): + (Stimulatory index (SI; T + APC + TG2-treated peptide divided by T + APC) of 3-10)
[3]
  Response to TG2-treated gluten peptides (stimulatory index): + (Stimulatory index (SI; T + APC + TG2-treated peptide divided by T + APC) of 3-10)
[4]
  Response to TG2-treated gluten peptides (stimulatory index): ++ (SI above 10)
[5]
  Response to TG2-treated gluten peptides (stimulatory index): + (Stimulatory index (SI; T + APC + TG2-treated peptide divided by T + APC) of 3-10)
[6]
  Response to TG2-treated gluten peptides (stimulatory index): −
[7]
  Response to TG2-treated gluten peptides (stimulatory index): ++ (SI above 10)
[8]
  Response to TG2-treated gluten peptides (stimulatory index): −
[9]
  Response to TG2-treated gluten peptides (stimulatory index): −
[10]
  Response to TG2-treated gluten peptides (stimulatory index): −
[11]
  Response to TG2-treated gluten peptides (stimulatory index): + (Stimulatory index (SI; T + APC + TG2-treated peptide divided by T + APC) of 3-10)
[12]
  Response to TG2-treated gluten peptides (stimulatory index): + (Stimulatory index (SI; T + APC + TG2-treated peptide divided by T + APC) of 3-10)
[13]
  Response to TG2-treated gluten peptides (stimulatory index): + (Stimulatory index (SI; T + APC + TG2-treated peptide divided by T + APC) of 3-10)
[14]
  Response to TG2-treated gluten peptides (stimulatory index): −

## QPQQPQQSFPQQQRP [γ-I]
[1]
  Response to TG2-treated gluten peptides (stimulatory index): −
[2]
  Response to TG2-treated gluten peptides (stimulatory index): + (Stimulatory index (SI; T + APC + TG2-treated peptide divided by T + APC) of 3-10)
[3]
  Response to TG2-treated gluten peptides (stimulatory index): −
[4]
  Response to TG2-treated gluten peptides (stimulatory index): −
[5]
  Response to TG2-treated gluten peptides (stimulatory index): −
[6]
  Response to TG2-treated gluten peptides (stimulatory index): −
[7]
  Response to TG2-treated gluten peptides (stimulatory index): −
[8]
  Response to TG2-treated gluten peptides (stimulatory index): −
[9]
  Response to TG2-treated gluten peptides (stimulatory index): + (Stimulatory index (SI; T + APC + TG2-treated peptide divided by T + APC) of 3-10)
[10]
  Response to TG2-treated gluten peptides (stimulatory index): −
[11]
  Response to TG2-treated gluten peptides (stimulatory index): + (Stimulatory index (SI; T + APC + TG2-treated peptide divided by T + APC) of 3-10)
[12]
  Response to TG2-treated gluten peptides (stimulatory index): −
[13]
  Response to TG2-treated gluten peptides (stimulatory index): −
[14]
  Response to TG2-treated gluten peptides (stimulatory index): −
